US20150031656A1, “COMBINATION THERAPY FOR TREATING ANDROGEN DEFICIENCY” (REPROS THERAPEUTICS INC., priority 2012, published 2015)
Values joined by “and” are separate entries in the source; they are usually repeats but may differ in a detail not shown here. Equal values may be shown once. Where a name gives a salt, the structure may show the parent alone. Read-outs that look alike come from different tables or passages of the source.

How the values were obtained:
total testosterone = test: Placebo controlled study of Androxal vs Androgel in hypogonadal men: testosterone; assay type: in vivo, human; conditions: for mean increase in testosterone from baseline: oral, two weeks
Method: (§1) Half of the men in each of the Androxal™ and placebo arms were randomized into cohorts that underwent in-clinic sessions on days 1 and 14 to determine pharmacokinetic parameters for Androxal™ as well as cyclical changes in testosterone. The placebo and Androxal™ doses were administered in a double blind fashion. […] Following the two week drug exposure patients were followed for an additional seven to ten days to determine the status of their testosterone levels.

serum LH = test: Androxal vs Androgel in hypogonadal men: serum LH; assay type: in vivo, human
Method: as §1

serum FSH = test: Androxal vs Androgel in hypogonadal men: serum FSH; assay type: in vivo, human; conditions: two weeks treatment and follow-up
Method: as §1

[1] = system: serum dihydroxytestosterone (DHT); test: Androxal vs Androgel in hypogonadal men: DHT to total testosterone ratio; assay type: in vivo, human; conditions: men on Androxal 50 mg; placebo group ratio 1.07
Method: as §1

triglycerides = test: Androxal vs Androgel in hypogonadal men: triglycerides; assay type: in vivo, human; conditions: men on Androxal, non-dose dependent, after two weeks of therapy
Method: as §1

[2] = Androxal vs Androgel in hypogonadal men: side effects; conditions: two week exposure
Method: as §1

morning testosterone = test: Androxal vs Testim, three month placebo-controlled trial: morning testosterone; assay type: in vivo, human; conditions: for Median Morning Testosterone, Baseline T: before dosing; for Median Morning Testosterone, Baseline T / Median Morning Testosterone, Final T: no unit in table; for Median Morning Testosterone, Final T: end of three month dosing
Method: (§2) Over 900 men were screened to achieve a total of 108 men who met all criteria and were enrolled in the study. All 108 men enrolled in the study satisfied the requirement of at least one dose and one visit in which efficacy measures could be assessed. The subjects were randomized into four groups: (i) placebo; (ii) 12.5 mg Androxal; (iii) 25 mg Androxal; and (iv) Testim. There was no statistical difference among the groups in testosterone at baseline.

sperm counts = test: Androxal vs Testim, three month trial: sperm counts; assay type: in vivo, human
Method: as §2
Sperm counts were assessed at baseline and after dosing was completed. Spermatogenesis is approximately a 64 day cycle and detection of early changes after 3 months of treatment would be expected. At baseline, the median values of all four arms were above the generally accepted lower level of sperm counts for normal males (20 million sperm per ml). […] The median sperm count for the men in the combined Androxal arms was 93.8 million sperm/ml (p value=0.001 compared to Testim). […] No drug related serious adverse effects occurred that led to discontinuation.

[3] = Androxal vs Testim, three month trial: tolerability; assay type: in vivo, human; conditions: both doses (12.5 and 25 mg), three months
Method: as §2

serum testosterone = test: Androxal vs Testim, 6 month spermatogenesis trial: serum testosterone; assay type: in vivo, human; conditions: after 3 months of treatment, sustained for another 3 months
Method: (§3) The mean age of the subjects was 46 years and mean body weight was 233 pounds. […] Subjects were required to discontinue topical exogenous testosterone for at least 30 days prior to receiving study medication. Effects of the treatment on sperm parameters associated with fertility as well as on FSH and LH levels were evaluated following 3 and 6 months of therapy and one month after cessation of treatment. Semen analysis included semen volume, total sperm count, sperm concentration, percent motility and percent normal morphology. There were 6 laboratory visits including a screening (V1), baseline (V2) and post first dose visits at 1 month (V3), 3 months (V4) and 6 months (V5) as well as a one month post therapy follow-up visit (V6).

LH and FSH = test: Androxal vs Testim, 6 month spermatogenesis trial: LH and FSH; assay type: in vivo, human; conditions: secondary hypogonadal men, 3 and 6 months of therapy
Method: as §3

[4] = Androxal vs Testim, 6 month spermatogenesis trial: tolerability; assay type: in vivo, human; conditions: 6 months of drug therapy
Method: as §3

testosterone = conditions: for 24 hr T <300 ng/dl @ Week 6 / Any T >1100 ng/dl @ Week 6: number of men
Method: Sixty men with testosterone levels not exceeding 350 ng/dl were enrolled in the study and randomized to one of four parallel arms: (i) 6.25 mg Androxal (ii) 12.5 mg Androxal (iii) 25 mg Androxal or (iv) Androgel. The average age of men in the study was 53.1 (10.1) and their average body mass index (BMI) was 31.8 (6.1). The men were dosed for 6 weeks and then followed for an additional 7 days after cessation of treatment. Subjects in all arms visited the clinic every 2 weeks for assessments. Twenty-four hour assessments were made at baseline before dosing commenced and after 6 weeks of treatment, at which point testosterone and LH were assessed hourly.

total serum testosterone = conditions: for effect on total serum testosterone (in words): baboons; for effect on total serum testosterone (in words) / Serum Testosterone Levels, 12 days, group mean: 1.5 mg/kg for 12 days; for Serum Testosterone Levels, 6 days / Serum Testosterone Levels, 12 days / Serum Testosterone Levels, wash-out / Serum Testosterone Levels, baseline / Serum Testosterone Levels, 0 day: individual baboon; for Serum Testosterone Levels, 6 days / Serum Testosterone Levels, 6 days, group mean: 1.5 mg/kg daily, day 6; for Serum Testosterone Levels, 6 days / Serum Testosterone Levels, 12 days: 1.5 mg/kg; for Serum Testosterone Levels, 12 days: 1.5 mg/kg for 12 consecutive days; for Serum Testosterone Levels, 12 days / Serum Testosterone Levels, 12 days, group mean: day 12; for Serum Testosterone Levels, wash-out / Serum Testosterone Levels, wash-out, group mean: 7 days after the last treatment; for Serum Testosterone Levels, baseline: baseline Dec. 3, 2001, before treatment; for Serum Testosterone Levels, 0 day / Serum Testosterone Levels, 0 day, group mean: day 0, before first dose; for Serum Testosterone Levels, 6 days, group mean / Serum Testosterone Levels, 12 days, group mean / Serum Testosterone Levels, wash-out, group mean / Serum Testosterone Levels, baseline, group mean / Serum Testosterone Levels, 0 day, group mean: mean of 3 baboons; for Serum Testosterone Levels, baseline, group mean: before treatment
Excerpt: (§4) The samples analyzed were sera taken on the day of first treatment before being given test article (day 0), after 12 days of treatment (day 12) and 7 days after the last treatment (end or wash-out).

serum cholesterol = conditions: baboons, 1.5 mg/kg for 12 days
serum prolactin (PRL) = test: Serum prolactin in male baboons; conditions: 1.5 mg/kg for 12 days
Excerpt: as §4

[5] = three month dosing, Androxal arms combined, Testim arm

CCN(CC)CCOc1ccc(/C(=C(\Cl)c2ccccc2)c2ccccc2)cc1 [Androxal™, trans-clomiphene]
serum total testosterone in the follow-up period (total testosterone; 7-10 days after cessation of daily oral treatment): unexpectedly remained high | mean total testosterone (total testosterone; hypogonadal men, Androxal 50 mg, after 15 days): 589 ± 172 ng/dL | mean increase in testosterone from baseline (total testosterone; hypogonadal men, Androxal high dose (50 mg)): 294 ng/dL | mean increase in testosterone from baseline (total testosterone; hypogonadal men, Androxal low dose (12.5 mg)): 169 ng/dL | mean increase in testosterone from baseline (total testosterone; hypogonadal men, Androxal mid dose (25 mg)): 247 ng/dL | serum LH in the follow-up period (serum LH; 7-10 days after cessation of treatment): remained high | serum levels of LH during treatment (serum LH; hypogonadal men, two weeks treatment): statistically significant increase | serum levels of FSH (serum FSH): boosts serum FSH which remains high during the follow-up period | DHT/TT ratio [1]: 0.83 | reduction in triglycerides, average (triglycerides): 19.1% | side effects different than placebo [2]: no side effects noted | Median Morning Testosterone, Baseline T (morning testosterone; Androxal 12.5 mg (n = 26), text uses ng/dl): 202 | Median Morning Testosterone, Final T (morning testosterone; Androxal 12.5 mg (n = 26)): 432 | Median Morning Testosterone, Baseline T (morning testosterone; Androxal 25 mg (n = 30)): 202 | Median Morning Testosterone, Final T (morning testosterone; Androxal 25 mg (n = 30)): 416 | men exceeding the normal maximum level of testosterone (1100 ng/dl) (morning testosterone; [5]): no men | men in the normal range for morning testosterone levels (300-1100 ng/dl) (morning testosterone; [5]): 69.9% | change in sperm counts from baseline (in words) (sperm counts; end of the three month dosing period): no statistically significant changes | median sperm count (sperm counts; end of three month dosing, Androxal arms combined, Testim arm): 93.8 million sperm/ml | tolerability compared to placebo [3]: generally well tolerated | mean serum testosterone (serum testosterone): statistically significant rise | LH and FSH levels (LH and FSH): significantly increased both LH and FSH | tolerability [4]: well tolerated by all subjects | 24 hr T <300 ng/dl @ Week 6 (testosterone; Androxal 6.25 mg): 4 out of 12 | Any T >1100 ng/dl @ Week 6 (testosterone; Androxal 6.25 mg): 0 out of 12 | 24 hr T <300 ng/dl @ Week 6 (testosterone; Androxal 12.5 mg): 2 out of 10 | Any T >1100 ng/dl @ Week 6 (testosterone; Androxal 12.5 mg): 0 out of 10 | 24 hr T <300 ng/dl @ Week 6 (testosterone; Androxal 25 mg): 0 out of 13 | Any T >1100 ng/dl @ Week 6 (testosterone; Androxal 25 mg): 0 out of 13 | morning testosterone after the seven day follow-up (in words) (testosterone; all Androxal arms (6.25, 12.5, 25 mg)): improved morning testosterone compared to baseline

CCN(CC)CCOc1ccc(C(=C(Cl)c2ccccc2)c2ccccc2)cc1 [Clomid, clomiphene citrate]
effect on total serum testosterone (in words) (total serum testosterone): more variable total testosterone levels on day 6 and later | Serum Testosterone Levels, 6 days (total serum testosterone; listed as CLO): 940.97 ng/dL and 585.92 ng/dL and 151.12 ng/dL | Serum Testosterone Levels, 12 days (total serum testosterone; listed as CLO): 891.5 ng/dL and 555.6 ng/dL and 318.9 ng/dL | Serum Testosterone Levels, wash-out (total serum testosterone; listed as CLO): 150.9 ng/dL and 316.3 ng/dL and 143.6 ng/dL | Serum Testosterone Levels, baseline (total serum testosterone; listed as CLO): 79.01 ng/dL and 97.55 ng/dL and 158.06 ng/dL | Serum Testosterone Levels, 0 day (total serum testosterone; listed as CLO): 76.15 ng/dL and 305.24 ng/dL and 102.94 ng/dL | Serum Testosterone Levels, 6 days, group mean (total serum testosterone): 559.3 ng/dL | Serum Testosterone Levels, 12 days, group mean (total serum testosterone): 588.7 ng/dL | Serum Testosterone Levels, wash-out, group mean (total serum testosterone): 203.6 ng/dL | Serum Testosterone Levels, baseline, group mean (total serum testosterone): 111.5 ng/dL | Serum Testosterone Levels, 0 day, group mean (total serum testosterone): 161.4 ng/dL | effect on serum cholesterol levels (in words) (serum cholesterol): slight increase | ALT/SGPT (in vivo): out of range low at the end of the study | BUN and BUN/creatinine (in vivo): altered during the study | serum carbon dioxide (in vivo): higher than reference values | serum glucose (in vivo, 1.5 mg/kg): within the normal range

CCN(CC)CCOc1ccc(/C(=C(/Cl)c2ccccc2)c2ccccc2)cc1 [Enclomid, trans-Clomid]
effect on total serum testosterone (in words) (total serum testosterone): significantly and statistically raised total serum testosterone on days 6 and 12 | Serum Testosterone Levels, 6 days (total serum testosterone): 1223.8 ng/dL and 1128.2 ng/dL and 1081.1 ng/dL | Serum Testosterone Levels, 12 days (total serum testosterone): 633.6 ng/dL and 1466 ng/dL and 1166 ng/dL | Serum Testosterone Levels, wash-out (total serum testosterone): 307.2 ng/dL and 399.2 ng/dL and 271 ng/dL | Serum Testosterone Levels, baseline (total serum testosterone): 64.57 ng/dL and 166.86 ng/dL and 170.45 ng/dL | Serum Testosterone Levels, 0 day (total serum testosterone): 74.96 ng/dL and 133.59 ng/dL and 106.47 ng/dL | Serum Testosterone Levels, 6 days, group mean (total serum testosterone): 1144.4 ng/dL | Serum Testosterone Levels, 12 days, group mean (total serum testosterone): 1088.5 ng/dL | Serum Testosterone Levels, wash-out, group mean (total serum testosterone): 325.8 ng/dL | Serum Testosterone Levels, baseline, group mean (total serum testosterone): 134.0 ng/dL | Serum Testosterone Levels, 0 day, group mean (total serum testosterone): 105.0 ng/dL | decrease in serum cholesterol levels (serum cholesterol): 8% | ALT/SGPT (in vivo): within the normal range | BUN and BUN/creatinine (in vivo): altered during the study | per cent of granulocytes in the blood (in vivo): lowering the per cent of granulocytes in the blood | platelet count (in vivo): pushed the platelet count to its normal male level | serum alkaline phosphatase (ALP) (in vivo): decreased in value | serum anion gap (in vivo): raised this parameter towards normal values | lymphocyte count and per cent lymphocytes (in vivo, 1.5 mg/kg): Both the count and per cent lymphocytes in the population increase | red blood cell population (in vivo, 1.5 mg/kg): substantive effects on the red blood cell population | serum glucose (in vivo, 1.5 mg/kg): no increases with treatment | serum prolactin (PRL) during the study (serum prolactin (PRL)): decrease in serum prolactin (PRL)

CCN(CC)CCOc1ccc(/C(=C(\Cl)c2ccccc2)c2ccccc2)cc1 [Zuclomid, cis-Clomid]
effect on total serum testosterone (in words) (total serum testosterone): did not raise total serum testosterone to any extent | Serum Testosterone Levels, 6 days (total serum testosterone): 137.51 ng/dL and 169.98 ng/dL and 227.95 ng/dL | Serum Testosterone Levels, 12 days (total serum testosterone): 314.5 ng/dL and 406.1 ng/dL and 353.0 ng/dL | Serum Testosterone Levels, wash-out (total serum testosterone): 359.7 ng/dL and 860.5 ng/dL and 274.1 ng/dL | Serum Testosterone Levels, baseline (total serum testosterone): 124.84 ng/dL and 104.66 ng/dL and 282.29 ng/dL | Serum Testosterone Levels, 0 day (total serum testosterone): 210.4 ng/dL and 67.37 ng/dL and 904.82 ng/dL | Serum Testosterone Levels, 6 days, group mean (total serum testosterone): 178.5 ng/dL | Serum Testosterone Levels, 12 days, group mean (total serum testosterone): 357.9 ng/dL | Serum Testosterone Levels, wash-out, group mean (total serum testosterone): 498.1 ng/dL | Serum Testosterone Levels, baseline, group mean (total serum testosterone): 170.6 ng/dL | Serum Testosterone Levels, 0 day, group mean (total serum testosterone): 394.2 ng/dL | increase in serum cholesterol levels (serum cholesterol): 22% | hematocrit (baboons, 1.5 mg/kg for 12 days): demonstrated a statistical difference | red blood cell population (baboons, 1.5 mg/kg for 12 days): substantive effects on the red blood cell population | serum glucose (baboons, 1.5 mg/kg for 12 days): within the normal range | serum carbon dioxide (baboons, day 12): higher than reference values | serum alkaline phosphatase (ALP) (baboons, following treatment): not elevated | ALT/SGPT (baboons, over the treatment period / end of the study): within the normal range
